This note sets out measurements from patent US12295936B2, “Immunomodulating urea azalides” (Zoetis Services LLC, priority 2020, dated 2025).

One assay has as its system P. multocida 46572. Kind of assay: In vivo mouse lung infection challenge model (murine efficacy). Details: species or system CD-1 female mice. Particulars: 20 mg/kg subcutaneous, P. multocida challenge; harmonized against the comparative vehicle survival rate. On the procedure: The challenge organism was P. multocida 46572. Target challenge concentration was 5×10^2 CFU/mouse. Isolated colonies from overnight growth (37° C. with 5% CO2) on trypticase soy agar (TSA II) blood plates were transferred to room temperature Brain Heart Infusion Broth (BHIB). The broth culture was incubated 3.5-4 hours to approximately mid-log phase of growth, as measured by forward light scatter at 600 nm (OD600, 0.200). The culture was centrifuged to collect the bacterial pellet. The pellet was re-suspended in BHIB and adjusted to provide an approximate concentration of 2.7 log^10 colony forming units (CFU) in 0.04 mL at the highest concentration. The challenge inoculum concentration was confirmed by serial dilutions of the inoculum for CFU enumeration. On Day −5, CD-1 female mice were received. Mice were given standard rodent diet and water ad libitum. On Day 0, bacterial inoculum (0.04 mL) was administered to each mouse (n=36) intranasally. Compounds of the invention were dosed at 20 mg/kg (0.1 mL) in a buffered (˜pH 5.4) propylene glycol, monothioglycerol and water solution by subcutaneous injection. Animals were observed from Days 1-10. The study was terminated on Day 10. In addition, some treatment groups were sampled at 6, 24, and 48 hours post bacterial challenge for RNA sequence analysis of lung tissue.
The murine efficacy model (P. multocida challenge) was optimized, and the treatment group size was powered to be able to observe statistically significant improvement of survival to expected ranges for immunomodulatory compounds. The experimental design was a randomized complete block design. Mice were individually identified and treatment groups comingled within a cage, with every treatment group equally represented across cages. Mortality was the primary variable. Mortality data was analyzed using a generalized mixed model with fixed effect of treatment and random effect of block. Survival time was also analyzed using the SAS PHREG (survival analysis) procedure to examine whether there were significant differences between treatment groups and the control group. Numerous compounds of the invention and M9 (positive control) were tested in this model at a dose of 20 mg/kg. Typical percent survival for no treatment control is in the range of 0-20% based on study to study variation in challenge inoculum and rate of infection. […] Mouse survival for M9 was about 90-100%, further supporting its antibacterial properties against the bacterial strain (Table 3). Survival values presented are harmonized against the comparative vehicle survival rate.

The test system of another assay is IL-1β. Nature of the assay: LPS-stimulated whole bovine blood assay, MSD cytokine detection. The format is cell-based. Particulars: overstimulation of IL-1β, LPS-stimulated bovine whole blood.
The test system of a further assay is IL-6. The assay is described as above. Particulars: read-out: IL-6 (IC50 μM). The format is cell-based. The source says:
In order to correlate RNA sequencing data to cytokine changes the whole blood assay was utilized. […] The enhancement result represents an overall stimulation of cytokine levels due to cellular stress or potential toxicity with increasing concentrations of the compound, representing a typical bell shape response curve for immunomodulatory activity.

The subject of a further assay is TNF-α. The assay is described as above. The format is cell-based. Particulars: Bos taurus, read-out: TNF-α (IC50 μM).
The subject of assay [1] is BRD pathogens, M. haemolytica and P. multocida. Kind of assay: MIC screening panel of BRD pathogens (antibacterial / non-antibacterial). Particulars: read-out: antibacterial / non-antibacterial (MIC for the BRD pathogens).
[2] abbreviates: Bos taurus, LPS-stimulated bovine whole blood.
Where [3] appears, read: LPS-stimulated bovine whole blood.

Structures are written as SMILES. Where two headings read alike, the source gives them in different places. Bounds are passed on as bounds.

Usually IC50 stands for the concentration that inhibits the measured activity by half. As to `CCCNC[C@]1(O)[C@H](C)O[C@@H](O[C@H]2[C@H](C)[C@@H](O[C@@H]3O[C@H](C)C[C@H](N(C)C(=O)Nc4cnn(C)c4)[C@H]3O)[C@](C)(O)C[C@@H](C)CN[C@H](C)[C@@H](O)[C@](C)(O)[C@@H](CC)OC(=O)[C@@H]2C)C[C@@]1(C)OC` [Example H-74, 1-((2S,3R,4S,6R)-2-(((2R,3S,4R,5R,8R,10R,11R,12S,13S,14R)-2-ethyl-3,4,10-trihydroxy-13-(((2R,4R,5S,6S)-5-hydroxy-4-methoxy-4,6-dimethyl-5-((propylamino)methyl)tetrahydro-2H-pyran-2-yl)oxy)-3,5,8,10,12,14-hexamethyl-15-oxo-1-oxa-6-azacyclopentadecan-11-yl)oxy)-3-hydroxy-6-methyltetrahydro-2H-pyran-4-yl)-1-methyl-3-(1-methyl-1H-pyrazol-4-yl)urea], in the assay on P. multocida 46572, the “Mouse Murine Percent Survival” value was 11%. In addition, the “IL-1β OS of LPS” value in the assay with IL-1β is greater than 500 µM. Further, the IC50 in the assay on IL-6 (Bos taurus) is greater than 500 µM; with TNF-α it was roughly 600 µM.
Regarding `CC[C@H]1OC(=O)[C@H](C)[C@@H](O[C@H]2C[C@@](C)(OC)[C@](O)(CN3CCN(C)CC3)[C@H](C)O2)[C@H](C)[C@@H](O[C@@H]2O[C@H](C)C[C@H](N(C)C(=O)NC(C)(C)C)[C@H]2O)[C@](C)(O)C[C@@H](C)CN[C@H](C)[C@@H](O)[C@]1(C)O` [Example J-3, 3-(tert-butyl)-1-((2S,3R,4S,6R)-2-(((2R,3S,4R,5R,8R,10R,11R,12S,13S,14R)-2-ethyl-3,4,10-trihydroxy-13-(((2R,4R,5S,6S)-5-hydroxy-4-methoxy-4,6-dimethyl-5-((4-methylpiperazin-1-yl)methyl)tetrahydro-2H-pyran-2-yl)oxy)-3,5,8,10,12,14-hexamethyl-15-oxo-1-oxa-6-azacyclopentadecan-11-yl)oxy)-3-hydroxy-6-methyltetrahydro-2H-pyran-4-yl)-1-methylurea], the “Mouse Murine Percent Survival” value with P. multocida 46572 is reported as 25%. In the assay on IL-1β, the “IL-1β OS of LPS” value is 200 µM. The values for the IC50 in the assay with IL-6 (setting [2]) and in the assay on TNF-α (setting [3]) were 225 µM and 200 µM, respectively.
Regarding `CC[C@H]1OC(=O)[C@H](C)[C@@H](O[C@H]2C[C@@](C)(OC)[C@@H](O)[C@H](C)O2)[C@H](C)[C@@H](O[C@@H]2O[C@H](C)C[C@H](N(C)C(=O)N(C)c3ccc(C(F)(F)F)cc3)[C@H]2O)[C@](C)(O)C[C@@H](C)CN(C)[C@H](C)[C@@H](O)[C@]1(C)O` [Example B-6, 1-((2S,3R,4S,6R)-2-(((2R,3S,4R,5R,8R,10R,11R,12S,13S,14R)-2-ethyl-3,4,10-trihydroxy-13-(((2R,4R,5S,6S)-5-hydroxy-4-methoxy-4,6-dimethyltetrahydro-2H-pyran-2-yl)oxy)-3,5,6,8,10,12,14-heptamethyl-15-oxo-1-oxa-6-azacyclopentadecan-11-yl)oxy)-3-hydroxy-6-methyltetrahydro-2H-pyran-4-yl)-1,3-dimethyl-3-(4-(trifluoromethyl)phenyl)urea], in the assay on P. multocida 46572, the “Mouse Murine Percent Survival” value was 1%. The “IL-1β OS of LPS” value in the assay on IL-1β worked out at 40 µM. The IC50 in the assay with IL-6 (setting [2]) is 41 µM; with TNF-α (setting [3]), 12 µM.
Consider `CCCNC[C@]1(O)[C@H](C)O[C@@H](O[C@H]2[C@H](C)[C@@H](O[C@@H]3O[C@H](C)C[C@H](N(C)C(=O)Nc4ccc(F)cc4)[C@H]3O)[C@](C)(O)C[C@@H](C)CN[C@H](C)[C@@H](O)[C@](C)(O)[C@@H](CC)OC(=O)[C@@H]2C)C[C@@]1(C)OC` [Example H-83, 1-((2S,3R,4S,6R)-2-(((2R,3S,4R,5R,8R,10R,11R,12S,13S,14R)-2-ethyl-3,4,10-trihydroxy-13-(((2R,4R,5S,6S)-5-hydroxy-4-methoxy-4,6-dimethyl-5-((propylamino)methyl)tetrahydro-2H-pyran-2-yl)oxy)-3,5,8,10,12,14-hexamethyl-15-oxo-1-oxa-6-azacyclopentadecan-11-yl)oxy)-3-hydroxy-6-methyltetrahydro-2H-pyran-4-yl)-3-(4-fluorophenyl)-1-methylurea], for which, in assay [1], the MIC was greater than 64 µg/mL. Besides, the “Mouse Murine Percent Survival” value with P. multocida 46572 is on record as 11%. Besides, the “IL-1β OS of LPS” value with IL-1β stood at 80 µM. Further, in the assay with TNF-α (setting [3]), the half-maximal inhibitory concentration (IC50) turned out to be 350 µM.
Turning to `CC[C@H]1OC(=O)[C@H](C)[C@@H](O[C@H]2C[C@@](C)(OC)[C@](O)(CN3CCN(C)CC3)[C@H](C)O2)[C@H](C)[C@@H](O[C@@H]2O[C@H](C)C[C@H](N(C)C(=O)Nc3ccccc3)[C@H]2O)[C@](C)(O)C[C@@H](C)CN[C@H](C)[C@@H](O)[C@]1(C)O` [Example J-7, 1-((2S,3R,4S,6R)-2-(((2R,3S,4R,5R,8R,10R,11R,12S,13S,14R)-2-ethyl-3,4,10-trihydroxy-13-(((2R,4R,5S,6S)-5-hydroxy-4-methoxy-4,6-dimethyl-5-((4-methylpiperazin-1-yl)methyl)tetrahydro-2H-pyran-2-yl)oxy)-3,5,8,10,12,14-hexamethyl-15-oxo-1-oxa-6-azacyclopentadecan-11-yl)oxy)-3-hydroxy-6-methyltetrahydro-2H-pyran-4-yl)-1-methyl-3-phenylurea], in the assay with P. multocida 46572, the “Mouse Murine Percent Survival” value is reported as 39%. Moreover, the “IL-1β OS of LPS” value with IL-1β was found to be 200 µM. The concentration for half-maximal inhibition (IC50) in the assay with IL-6 (setting [2]) is greater than 500 µM; in the assay on TNF-α (setting [3]), 200 µM.
For `CCCNC[C@]1(O)[C@H](C)O[C@@H](O[C@H]2[C@H](C)[C@@H](O[C@@H]3O[C@H](C)C[C@H](N(C)C(=O)Nc4cccnc4)[C@H]3O)[C@](C)(O)C[C@@H](C)CN[C@H](C)[C@@H](O)[C@](C)(O)[C@@H](CC)OC(=O)[C@@H]2C)C[C@@]1(C)OC` [Example H-72, 1-((2S,3R,4S,6R)-2-(((2R,3S,4R,5R,8R,10R,11R,12S,13S,14R)-2-ethyl-3,4,10-trihydroxy-13-(((2R,4R,5S,6S)-5-hydroxy-4-methoxy-4,6-dimethyl-5-((propylamino)methyl)tetrahydro-2H-pyran-2-yl)oxy)-3,5,8,10,12,14-hexamethyl-15-oxo-1-oxa-6-azacyclopentadecan-11-yl)oxy)-3-hydroxy-6-methyltetrahydro-2H-pyran-4-yl)-1-methyl-3-(pyridin-3-yl)urea], in the assay with P. multocida 46572, the “Mouse Murine Percent Survival” value amounted to 4%. Moreover, the “IL-1β OS of LPS” value with IL-1β was greater than 500 µM. In addition, the IC50 with IL-6 (setting [2]) and in the assay with TNF-α (setting [3]) was greater than 500 µM in each case.
With `CC[C@H]1OC(=O)[C@H](C)[C@@H](O[C@H]2C[C@@](C)(OC)[C@@H](O)[C@H](C)O2)[C@H](C)[C@@H](O[C@@H]2O[C@H](C)C[C@H](N(C)C(=O)N(C)c3ccc(C(F)(F)F)cc3)[C@H]2O)[C@](C)(O)C[C@@H](C)CN[C@H](C)[C@@H](O)[C@]1(C)O` [Example B-2, 1-((2S,3R,4S,6R)-2-(((2R,3S,4R,5R,8R,10R,11R,12S,13S,4R)-2-ethyl-3,4,10-trihydroxy-13-(((2R,4R,5S,6S)-5-hydroxy-4-methoxy-4,6-dimethyltetrahydro-2H-pyran-2-yl)oxy)-3,5,8,10,12,14-hexamethyl-15-oxo-1-oxa-6-azacyclopentadecan-11-yl)oxy)-3-hydroxy-6-methyltetrahydro-2H-pyran-4-yl)-1,3-dimethyl-3-(4-(trifluoromethyl)phenyl)urea], the “Mouse Murine Percent Survival” value in the assay with P. multocida 46572 is 28%. The “IL-1β OS of LPS” value with IL-1β amounted to 40 µM. Further, in the assay on IL-6 (setting [3]), the IC50 amounted to 52 µM.
